Values joined by “and” are separate entries in the source; they are usually repeats but may differ in a detail not shown here. Identical values can stand only once. Counter-ions that a name gives are not always drawn. Like-named read-outs stand apart in the source and are kept apart here.
Key:
[1] = system: mucin immobilized to IAM.PC.DD2; assay: HPLC on MIC column (2:1 mucin to PC IAM particles): retention time, k′MIC, derived Km and Peff MIC; details: for log k′MIC / K′MIC: MIC 2:1; for k′MIC / Retention Time: MIC column 2:1 mucin:IAM, MPS pH 7.4; for Retention Time: isocratic 0.3 ml/min; for Dm: membrane diffusion coefficient calculated from molecular weight
Method: [formula] where Dm is the membrane diffusion coefficient of the solute, Km is the membrane equilibrium constant, and L is the membrane thickness (Stein, W., Transport and Diffusion Across Cell Membranes, Academic Press, Orlando, Fla. (1986)). […] Since molecular weight, MW, is proportional to molecular size, Dm may also written as,
[formula] Thus, Dm can be calculated from the molecular weight. Furthermore, Km is calculated by the following equation, Km−(Vm/Vs)k′, [4] where Vm is the volume of the mobile phase, Vs is the internal volume of the stationary phase, and k′ is the partition ratio (Pidgeon and Ong, Chemtech. June, 38-48 (1995)). The partition ratio is determined by the equation, k′−(tr−to)/to, [5] where tr is the retention time of the drug and to is the void volume of the column. Both tr and to can be experimentally determined in order to obtain k′.
Equation 2 can be used to determine Km for a given MIC medium. Both Dm and L are known from the discussion above, and Peff can be calculated for various drugs having known in vivo absorption. For example, a number of drug permeability coefficients, Peff, derived from in vivo experiments are listed in literature. […] See Example 5 below.

[2] = from literature; cited from earlier work
[3] = system: mucin immobilized to PC IAM particles; assay: pH and mucin layer thickness dependence of partition ratio on MIC columns (1:2 and 2:1); details: for k′MIC (1:2): column 1:2, 0.32 μm; for k′MIC (1:2) / k′MIC (2:1): pH 7, Table 9; for (1:2) k′ (pH 3) / (1:2) k′ (pH 5) / (1:2) k′ (pH 7): column 1:2 mucin to PC IAM, 0.32 μm mucin layer; for (1:2) k′ (pH 3) / (2:1) k′ (pH 3): mobile phase pH 3; for (1:2) k′ (pH 5) / (2:1) k′ (pH 5): mobile phase pH 5; for (1:2) k′ (pH 7) / (2:1) k′ (pH 7): mobile phase pH 7; for k′MIC (2:1): column 2:1, 0.36 μm; for (2:1) k′ (pH 3) / (2:1) k′ (pH 5) / (2:1) k′ (pH 7): column 2:1 mucin to PC IAM, 0.36 μm mucin layer
Method: Samples were dissolved in mobile phase solution and filtered (filter pore size, 0.45 μm) prior to injection. […] From this measurement and a measurement of the void volume (t0) the k′MIC could be determined. In addition, from the molecular weight of the compounds, Dm could be determined. These compounds, with the exceptions noted below, were used to generate the column constant (Vm/Vs).
For these reasons, the influence of pH on drug retention times was measured on columns having two different mucin layer thicknesses, 0.32 μm (column prepared with a 1:2 wt % of mucin to PC IAM particles) and 0.36 μm (column prepared with a 2:1 wt % of mucin to PC IAM particles)(Table 8). […] The influence of pH on drug retention time was measured by using different mobile phase buffers adjusted to pH 3, 5 or 7 on either the 0.32 μm or 0.36 μm column.
Capacity factors were calculated from drug retention times collected on columns having two different mucin layer thicknesses, 0.32 μm (column prepared with a 1:2 wt % of mucin to PC IAM particles) and 0.36 μm (column prepared with a 2:1 wt % of mucin to PC IAM particles).

[4] = cited from earlier work
[5] = single-pass perfusions, cited from earlier work
Caco-2 = details: from literature, cited from earlier work
[6] = determined by linear equation, Table 5
[7] = determined by linear equation, Table 6

Row | SMILES | δ = log k′MIC − log k′IAM [1] | log k′MIC [1] | K′MIC ([1]; Table 5) | k′MIC [1] | Retention Time [1] | Dm [1] | log k′IAM [2] | k′MIC (1:2) [3] | (1:2) k′ (pH 3) [3] | (1:2) k′ (pH 5) [3] | (1:2) k′ (pH 7) [3] | k′MIC (2:1) [3] | (2:1) k′ (pH 3) [3] | (2:1) k′ (pH 5) [3] | (2:1) k′ (pH 7) [3] | Peff Loc-I-Gut (×10^−4 cm/s) ([5]; Table 5) | Peff Loc-I-Gut (×10^−4 cm/s) ([5]; Table 9) | % Absorbed ([4]; Table 5) [%] | Peff MIC (×10^−4 cm/s) [1, 6] | K′MIC ([1]; Table 6) | also measured
1 | Cc1cc(=O)n(-c2ccccc2)n1C [Antipyrine] | 1.91 | 1.89 | 77.57 | 77.5714 | 5.5 | 0.0053 | −0.02 | 50.7 | 54.00 | 54.00 | 50.67 | 40.7 | 40.43 | 39.00 | 40.67 | 5.6 ×10^−4 cm/s | 5.6 ×10^−4 cm/s |  |  |  | % Absorbed ([4]; in vivo): 100%
2 | CC(C)NCC(O)COc1ccc(CC(N)=O)cc1 (stereo not drawn) [Atenolol] |  |  |  |  |  |  |  | 39 | 39.00 | 39.00 | 39.00 | 37 | 29.00 | 31.86 | 37.33 | 0.15 ×10^−4 cm/s | 0.2 ×10^−4 cm/s | 50 |  |  | % Absorbed ([4]; Table 6): 50%; Peff Loc-I-Gut (×10^−4 cm/s) ([5]; Table 6): 0.15 ×10^−4 cm/s
3 | CN(CC(=O)O)C(=N)N [Creatine] |  |  | 30.43 | 30.4286 | 2.2 | 0.0088 |  | 25.7 | 39.00 | 39.00 | 39.00 | 24 | 20.43 | 23.29 | 32.33 | 0.3 ×10^−4 cm/s | 0.3 ×10^−4 cm/s | 0 | −0.22 ×10^−4 cm/s |  | 
4 | NS(=O)(=O)c1cc(C(=O)O)c(NCc2ccco2)cc1Cl [Furosemide] |  |  |  |  |  |  |  | 35.7 | 40.67 | 37.33 | 35.67 | 25.7 | 30.43 | 27.57 | 25.67 | 0.3 ×10^−4 cm/s | 0.3 ×10^−4 cm/s | 60 |  |  | 
5 | COCCc1ccc(OCC(O)CNC(C)C)cc1 (stereo not drawn) [Metoprolol] | 1.14 | 1.64 | 43 | 43.2857 | 3.1 | 0.0015 |  | 47.3 | 50.67 | 50.67 | 47.33 | 35.7 | 36.14 | 41.86 | 35.67 |  |  |  | 1.21 ×10^−4 cm/s | 43.29 | Peff MIC (×10^−4 cm/s) [1, 7]: 1.21 ×10^−4 cm/s; Peff Caco-2 (×10^−6 cm/s) (Caco-2; Table 5): 23.7 ×10^−6 cm/s; Peff Caco-2 (×10^−6 cm/s) (Caco-2; Table 6): 23.7 ×10^−6 cm/s
6 | CC(C)NCC(O)COc1cccc2ccccc12 (stereo not drawn) [Propranolol] | 0.10 | 1.85 | 70.43 | 70.4286 | 5.0 | 0.0034 | 1.75 |  | 75.67 | 92.33 | 99.00 |  | 49.00 | 59.00 | 99.00 |  |  |  | 4.24 ×10^−4 cm/s | 70.43 | Peff MIC (×10^−4 cm/s) [1, 7]: 4.24 ×10^−4 cm/s; Peff Caco-2 (×10^−6 cm/s) (Caco-2; Table 5): 21.8 ×10^−6 cm/s; Peff Caco-2 (×10^−6 cm/s) (Caco-2; Table 6): 21.8 ×10^−6 cm/s
7 | NC(=O)N1c2ccccc2C=Cc2ccccc21 [carbamazepine] |  |  | 59.00 | 59.0000 | 4.2 | 0.0042 |  |  |  |  |  |  |  |  |  | 4.3 ×10^−4 cm/s |  |  | 2.96 ×10^−4 cm/s | 59.00 | Peff MIC (×10^−4 cm/s) [1, 7]: 2.96 ×10^−4 cm/s; Peff Caco-2 (×10^−6 cm/s) (Caco-2; Table 5): 19.9 ×10^−6 cm/s; Peff Caco-2 (×10^−6 cm/s) (Caco-2; Table 6): 19.9 ×10^−6 cm/s; Peff Loc-I-Gut (×10^−4 cm/s) ([5]; Table 6): 4.3 ×10^−4 cm/s
8 | C[C@]12C[C@H](O)[C@H]3[C@@H](CCC4=CC(=O)CC[C@@]43C)[C@@H]1CC[C@@H]2C(=O)CO [corticosterone] | 0.18 | 1.78 |  | 60.4286 | 4.3 | 0.0029 | 1.60 |  | 24.00 | 22.33 | 24.00 |  | 20.43 | 20.43 | 24.00 |  |  |  |  |  | % Absorbed ([4]; Table 7): 100%
9 | CCOC(=O)[C@H](CCc1ccccc1)N[C@@H](C)C(=O)N1CCC[C@H]1C(=O)O [enalapril maleate] |  |  | 35.86 | 35.8571 | 2.6 | 0.0020 |  | 34 | 27.33 | 37.33 | 34.00 | 20.7 | 31.86 | 21.86 | 20.67 | 0.2 ×10^−4 cm/s | 0.2 ×10^−4 cm/s | 60 | 0.38 ×10^−4 cm/s |  | Retention Time ([1]; listed as Enalapril maleate): 7.8; k′MIC ([1]; listed as Enalapril maleate): 110.429; stability during the HPLC analyses ([1]; two peaks, hydrolyzed and non-hydrolyzed forms): hydrolyzed to enalaprilat; Bioavailability ([4]; footnotes of Table 4 that tell the two cimetidine and two enalapril maleate lines apart): ^4Bioavailability = 60%;; percent absorption value ([4]; reported in literature, either of two values): 60 and 100
10 | C[C@](N)(Cc1ccc(O)c(O)c1)C(=O)O [α-methyldopa] |  |  | 33.29 | 33.2857 | 2.4 | 0.0047 |  |  |  |  |  |  |  |  |  | 0.2 ×10^−4 cm/s |  | 0 |  |  | Peff MIC (×10^−4 cm/s) [1]: 0.10 ×10^−4 cm/s

Reference: patent US7659240B2, “Mucin immobilized chromatography” (Vertex Pharmaceuticals Incorporated, priority 2002, dated 2010)
